In US20020028807A1, “Non-nucleoside reverse transcriptase inhibitors” (priority 2000, published 2002):

Columns and labels:
HIV-1 RT wild-type (WT) = biological target: T1, HIV-1 RT wild-type (WT) (Human immunodeficiency virus type 1 group M subtype B, UniProt P03366); test: Reverse transcriptase (RT) assay, wild-type enzyme; assay type: biochemical
T1 construct: an HIV RT clone pKRT2 containing only the RT p66 gene regulated by the lac operon/trc promoter; made in house; host or cells: E. coli JM109, vector pKK233-2
From the text: (§1) Among the enzymes for which Human Immunodeficiency Virus (HIV-1) encodes is a reverse transcriptase (1), so-named because it transcribes a DNA copy from an RNA template. This activity can be quantitatively measured in a cell-free enzyme assay and is based upon the observation that reverse transcriptase is able to use a synthetic template poly r(C) primed with a biotinylated oligo d(G) to transcribe a radio-labelled DNA strand utilising 3H-dGTP as a substrate. The assay described below utilises the wild-type enzyme (which is the predominant form of the enzyme observed in patients infected with HIV-1) and can also be used with mutant RT enzymes (for example, Y181C, prepared by site-directed mutagenesis in which the tyrosine residue at codon 181 has been replaced by a cysteine residue) in analogous assay conditions. This assay allows compounds to be evaluated for their effectiveness at inhibiting the mutant enzymes.
(§2) Some HIV-1 IIIB clone BH10 RT mutants were provided by Dr. C.-K. Shih (Boehringer Ingelheim Pharmaceutials Inc., U.S.A.) in the vector pKK233-2 (Pharmacia). Briefly an HIV RT clone pKRT2 containing only the RT p66 gene regulated by the lac operon/trc promoter was obtained from Dr. W. Summers (Yale University) (2). A variety of specific amino acid substitutions were introduced into the wild-type RT gene by site-directed mutagenesis. RT clones were subcloned into the pKK233-2 bacterial expression vector. Clones provided included wild-type, Val106Ala, Tyr181Cys, Tyr188Cys, Tyr188Leu, Gly190Ala and Pro236Leu. Others were made in-house by site-directed mutagenesis of the pKK233-2 RT clones including Lys103Asn, Lys103Asn/Tyr181Cys, Lys103Asn/Leu100Ile, Lys103Asn/Pro225His, and Lys103Asn/Val108Ile.
(§3) Purification of recombinant reverse transcriptase was performed using a combination of methods previously described (3). A single colony from a fresh plate of transformed JM109 cells was used to initiate growth of a pre-culture grown o/n at 37° C. Two liters of growth medium were inoculated with this pre-culture. At OD600˜1.5 (5-6 h at 37° C.), RT gene expression was induced with IPTG (1 mM final), and the fermentation was continued for a few more hours at 37° C. After centrifugation, supernatants were discarded while cell pellets were pooled and stored at −80° C. until purification. Cells were thawed at 4° C. overnight and suspended in lysis buffer (MES 50 mM pH 6, EDTA 1 mM, 10% v/v glyerol, 0.02% w/v OBG, 0.02% w/v sodium azide). Lysozyme was added and the mixture was incubated on ice for 40 minutes. After homogenization using a bounce in presence of lysozyme and sonication, the cells were centrifuged for 30 minutes. Supernatant (S1) was saved and stored at 4° C. The centrifuged pellet was resuspended in extraction buffer (MES 50 mM pH 6, KPO4 50 mM pH 6, KCl 100 mM, 10% v/v glycerol, 0.02% w/v OBG, 0.02% w/v sodium axide) and stirred for 30 minutes at 4° C. This second mixture was centrifuged again and the supernatant (S2) was saved. The above procedure was repeated 2 more times saving supernatants S3 and S4 and one last extraction was performed overnight (S5). Polymin P (0.005% final) was added to the combined supernatants to remove nucleic acids. This solution was stirred for 75 minutes at 4° C. and centrifuged for 1 h. The supernatant (SS1) was precipitated on ice with 20% w/v ammonium sulfate and stirred for 1 h at 4° C. The mixture was then centrifuged and the resulting supernatant (SS2) was precipitated with additional 40% w/v ammonium sulfate (60% total), stirred for 1 h and centrifuged again. The final pellet (P1) was stored overnight at 4° C. before undergoing purification the following day. All steps of the purification were performed at 4° C. unless otherwise stated.
(§4) Pellet (P1) was resuspended into MES 50 mM pH 6, KPO4 10 mM pH 6, KCl 100 mM, 10% v/v glycerol, 0.02% w/v OBG, 0.02% w/v sodium azide. The suspension was dialysis against the same buffer overnight using 12-14 kD MWCO dialysis tubing. […]

HIV-1 RT K103N/L100I = biological target: T2, HIV-1 RT K103N/L100I (Human immunodeficiency virus type 1 group M subtype B, UniProt P03366, K702N/L699I); test: Reverse transcriptase (RT) assay, K103N/L100I mutant; assay type: biochemical
T2 construct: an HIV RT clone pKRT2 containing only the RT p66 gene regulated by the lac operon/trc promoter; made in house; host or cells: E. coli JM109, vector pKK233-2
From the text: as §1, §2, §3, §4

HIV-1 RT G190A = biological target: T3, HIV-1 RT G190A (Human immunodeficiency virus type 1 group M subtype B, UniProt P03366, G789A); test: Reverse transcriptase (RT) assay, G190A mutant; assay type: biochemical
T3 construct: an HIV RT clone pKRT2 containing only the RT p66 gene regulated by the lac operon/trc promoter; made in house; host or cells: E. coli JM109, vector pKK233-2
From the text: as §1, §2, §3, §4

HIV-1 RT K103N/Y181C = biological target: T4, HIV-1 RT K103N/Y181C (Human immunodeficiency virus type 1 group M subtype B, UniProt P03366, K702N/Y780C); test: Reverse transcriptase (RT) assay, K103N/Y181C mutant; assay type: biochemical
T4 construct: an HIV RT clone pKRT2 containing only the RT p66 gene regulated by the lac operon/trc promoter; made in house; host or cells: E. coli JM109, vector pKK233-2
From the text: as §1, §2, §3, §4

HIV-1 RT Y188L = biological target: T5, HIV-1 RT Y188L (Human immunodeficiency virus type 1 group M subtype B, UniProt P03366, Y787L); test: Reverse transcriptase (RT) assay, Y188L mutant; assay type: biochemical
T5 construct: an HIV RT clone pKRT2 containing only the RT p66 gene regulated by the lac operon/trc promoter; made in house; host or cells: E. coli JM109, vector pKK233-2
From the text: as §1, §2, §3, §4

HIV-1 RT V106A = biological target: T6, HIV-1 RT V106A (Human immunodeficiency virus type 1 group M subtype B, UniProt P03366, V705A); test: Reverse transcriptase (RT) assay, V106A mutant; assay type: biochemical
T6 construct: an HIV RT clone pKRT2 containing only the RT p66 gene regulated by the lac operon/trc promoter; made in house; host or cells: E. coli JM109, vector pKK233-2
From the text: as §1, §2, §3, §4

HIV-1 RT K103N/P225H = biological target: T7, HIV-1 RT K103N/P225H (Human immunodeficiency virus type 1 group M subtype B, UniProt P03366, K702N/P824H); test: Reverse transcriptase (RT) assay, K103N/P225H mutant; assay type: biochemical
T7 construct: an HIV RT clone pKRT2 containing only the RT p66 gene regulated by the lac operon/trc promoter; made in house; host or cells: E. coli JM109, vector pKK233-2
From the text: as §1, §2, §3, §4

HIV-1 RT K103N/V108I = biological target: T8, HIV-1 RT K103N/V108I (Human immunodeficiency virus type 1 group M subtype B, UniProt P03366, K702N/V707I); test: Reverse transcriptase (RT) assay, K103N/V108I mutant; assay type: biochemical
T8 construct: an HIV RT clone pKRT2 containing only the RT p66 gene regulated by the lac operon/trc promoter; made in house; host or cells: E. coli JM109, vector pKK233-2
From the text: as §1, §2, §3, §4

[1] = system: HIV coding for wild-type reverse transcriptase (WT RT); test: ELISA (p24) assay of HIV replication in C8166 cell culture, wild-type RT virus; assay type: cell-based, HIV-1; conditions: Human immunodeficiency virus 1, C8166, 72 h, read-out: EC50 WT RT
Procedure: (§5) Compounds of the invention were tested for their ability to inhibit HIV replication in cell culture in a 96-well plate assay. Complete RPMI 1640, consisting of RPMI 1640+10% fetal bovine serum, 10 μg/ml gentamycin and 10 μM β-mercaptoethanol was used for dilution of the compound as well as cell growth medium. The T lymphocyte cell line C8166 was infected at a multiplicity of infection of 0.001 with viruses coding for wild-type and mutant reverse transcriptase. Cells were then incubated for three days in the presence of serial dilutions of the compounds of the invention. The supernatant was pooled from eight replica wells and the concentration of extracellular p24 was determined using a commercially available HIV-1 p24 antigen assay kit (Beckman-Coulter®). The level of inhibition (% inhibition) was calculated with the following equation: [formula]

HIV-1 RT K103N = biological target: T9, HIV-1 RT K103N (Human immunodeficiency virus type 1 group M subtype B, UniProt P03366, K702N); test: Reverse transcriptase (RT) assay, K103N mutant; assay type: biochemical
T9 construct: an HIV RT clone pKRT2 containing only the RT p66 gene regulated by the lac operon/trc promoter; made in house; host or cells: E. coli JM109, vector pKK233-2
From the text: as §1, §2, §3, §4

HIV-1 RT Y181C = biological target: T10, HIV-1 RT Y181C (Human immunodeficiency virus type 1 group M subtype B, UniProt P03366, Y780C); test: Reverse transcriptase (RT) assay, Y181C mutant; assay type: biochemical
T10 construct: an HIV RT clone pKRT2 containing only the RT p66 gene regulated by the lac operon/trc promoter; made in house; host or cells: E. coli JM109, vector pKK233-2
From the text: as §1, §2, §3, §4

HIV-1 RT Y188C = biological target: T11, HIV-1 RT Y188C (Human immunodeficiency virus type 1 group M subtype B, UniProt P03366, Y787C); test: Reverse transcriptase (RT) assay, Y188C mutant; assay type: biochemical
T11 construct: an HIV RT clone pKRT2 containing only the RT p66 gene regulated by the lac operon/trc promoter; made in house; host or cells: E. coli JM109, vector pKK233-2
From the text: as §1, §2, §3, §4

[2] = system: HIV coding for mutant reverse transcriptase K103N/Y181C; test: ELISA (p24) assay of HIV replication in C8166 cell culture, K103N/Y181C virus; assay type: cell-based, HIV-1; conditions: Human immunodeficiency virus 1, C8166, 72 h, read-out: EC50 K103N/Y181C
Procedure: as §5

[3] = system: HIV coding for mutant reverse transcriptase Y188L; test: ELISA (p24) assay of HIV replication in C8166 cell culture, Y188L virus; assay type: cell-based, HIV-1; conditions: Human immunodeficiency virus 1, C8166, 72 h, read-out: EC50 Y188L
Procedure: as §5

[4] = system: HIV coding for mutant reverse transcriptase V106A; test: ELISA (p24) assay of HIV replication in C8166 cell culture, V106A virus; assay type: cell-based, HIV-1; conditions: Human immunodeficiency virus 1, C8166, 72 h, read-out: EC50 V106A
Procedure: as §5

[5] = system: HIV coding for mutant reverse transcriptase Y181C; test: ELISA (p24) assay of HIV replication in C8166 cell culture, Y181C virus; assay type: cell-based, HIV-1; conditions: Human immunodeficiency virus 1, C8166, 72 h, read-out: EC50 Y181C
Procedure: as §5

[6] = system: HIV coding for mutant reverse transcriptase K103N; test: ELISA (p24) assay of HIV replication in C8166 cell culture, K103N virus; assay type: cell-based, HIV-1; conditions: Human immunodeficiency virus 1, C8166, 72 h, read-out: EC50 K103N
Procedure: as §5

SMILES	IC50 (HIV-1 RT wild-type (WT)) [nM]	IC50 (HIV-1 RT K103N/L100I) [nM]	IC50 (HIV-1 RT G190A) [nM]	IC50 (HIV-1 RT K103N/Y181C) [nM]	IC50 (HIV-1 RT Y188L) [nM]	IC50 (HIV-1 RT V106A) [nM]	IC50 (HIV-1 RT K103N/P225H) [nM]	IC50 (HIV-1 RT K103N/V108I) [nM]	EC50 [1] [nM]	IC50 (HIV-1 RT K103N) [nM]	IC50 (HIV-1 RT Y181C) [nM]	IC50 (HIV-1 RT Y188C) [nM]	EC50 [2] [nM]	EC50 [3] [nM]	EC50 [4] [nM]	EC50 [5] [nM]	EC50 [6] [nM]
CCN1c2ncc(CCOc3ccnc4ccccc34)cc2C(=O)N(C)c2cccnc21 [compound 24, 5,11-Dihydro-11-ethyl-5-methyl-8-{2-(4-quinolinyloxy)ethyl}-6H-dipyrido[3,2-b:2′,3′-e][1,4]diazepin-6-one]	5.6	169	25	70	627	344											
CCN1c2ncc(CCOc3cccc4ncccc34)cc2C(=O)Nc2c(C)cc(Cl)nc21 [compound 25, 2-Chloro-5,11-dihydro-11-ethyl-4-methyl-8-{2-(5-quinolinyloxy)ethyl}-6H-dipyrido[3,2-b:2′,3′-e][1,4]diazepin-6-one]	8	28		64	2540	84	23	38	2.2	19	17						
CCN1C(=O)c2cc(CCOc3ccnc4ccccc34)cnc2N(CC)c2ncccc21 [compound 26, 5,11-Dihydro-5,11-diethyl-8-{2-(4-quinolinyloxy)ethyl}-6H-dipyrido[3,2-b:2′,3′-e][1,4]diazepin-6-one]	8.9			200	5200	1750	85	443	2.2	40	51	147					
CCN1c2ncc(CCOc3cc[n+]([O-])c4ccccc34)cc2C(=O)N(C)c2ccc(C)nc21 [compound 28, 2,5-Dimethyl-5,11-dihydro-11-ethyl-8-{2-{(1-oxido-4-quinolinyl)oxy}ethyl}-6H-dipyrido[3,2-b:2′,3′-e][1,4]diazepin-6-one]	19	28	25	141	1190	605	25	35	1.3			9	7.5	70	42	2.6	2.3
